Source: patent publication US20240182465A1 (GENFLEET THERAPEUTICS (SHANGHAI) INC., priority 2021, published 2024)

Tests used:
HPK1 [1] = target: T1, HPK1 (Homo sapiens, UniProt Q92918); assay: HPK1 kinase activity assay (ADP-Glo); conditions: HPK1 Kinase activity IC50 (nM), 1 nM HPK1, 10 μM ATP, 0.1 μg/μL MBP
T1 sequence (Q92918 1-346 limits assumed): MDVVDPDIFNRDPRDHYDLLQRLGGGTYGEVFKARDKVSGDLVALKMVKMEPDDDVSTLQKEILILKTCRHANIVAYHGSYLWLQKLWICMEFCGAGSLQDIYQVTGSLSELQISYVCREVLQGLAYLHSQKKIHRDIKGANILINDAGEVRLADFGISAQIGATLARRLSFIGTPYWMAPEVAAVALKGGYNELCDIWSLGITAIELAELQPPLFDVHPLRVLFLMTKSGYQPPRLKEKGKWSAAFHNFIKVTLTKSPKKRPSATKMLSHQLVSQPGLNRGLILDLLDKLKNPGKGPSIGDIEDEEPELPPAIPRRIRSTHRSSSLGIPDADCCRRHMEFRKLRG
Protocol: Preparation of buffer: 1× reaction buffer (40 mM Tris-HCl, 20 mM MgCl2, 0.01% Brij35, 50 μM DTT, 0.1 mg/ml BSA) was prepared using sterile water, which was prepared and used on the day of the experiment.
Preparation of 1000× drug stock plate: a 1000× compound stock plate was prepared. […] The compound stock plate was sealed with a sealing film and stored in a −20° C. refrigerator for later use.
Compound preparation and dosing: the 1000× drug stock plate was taken and melted at room temperature in the dark. Then 5× drug intermediate plate was prepared using reaction buffer and mixed well. 2 μL was transferred from the 5× drug intermediate plate into a 384-well plate, and negative control well and positive control well (in which 2 μL reaction buffer containing 0.5% DMSO was added) were set. Each point was repeated twice.
Preparation and incubation of reaction mixture: HPK1 protein was diluted to a 2.5× working solution with reaction buffer. 4 μL 2.5×HPK1 protein was added to each well containing test compound and positive control well, and 4 μL of reaction buffer without HPK1 protein was added to the negative control well. The obtained mixture was centrifuged at 1000 rpm for 1 min and then incubated in a 20° C. incubator for 15 min. A 2.5× mixed working solution of MBP protein and ATP was prepared with reaction buffer at concentrations of 0.5 μg/μL and 50 PM, respectively. 4 μL of the mixed working solution of MBP and ATP was added to each well, centrifuged at 1000 rpm for 1 min, and then incubated in a 20° C. incubator for 90 min.
ADP-Glo detection and reading plate: 10 μl ADP-Glo was added to each well of the test plate. The resulting mixture was centrifuged at 1000 rpm for 1 min and incubated in a 20° C. incubator for 60 min. Then 10 μL of the final incubation solution was transferred from the test plate to a new 384-well plate. 10 μL of kinase detection reagent was added to each well, centrifuged at 400 g for 1 min, and incubated in a 20° C. incubator for 60 min. Chemiluminescent signals were read by a microplate reader.

HPK1 [2] = target: HPK1 (Homo sapiens, UniProt Q92918); assay: SLP76 phosphorylation assay (intracellular HPK1 inhibitory activity, p-SLP76 Ser376 sandwich ELISA); conditions: p-SLP76 IC50(nM), Jurkat, Clone E6-1 cells; 1 h compound pre-incubation, anti-CD3 beads stimulation 20 min; SLP76 phosphorylation at S376
Target sequence in this assay (Q92918 whole entry): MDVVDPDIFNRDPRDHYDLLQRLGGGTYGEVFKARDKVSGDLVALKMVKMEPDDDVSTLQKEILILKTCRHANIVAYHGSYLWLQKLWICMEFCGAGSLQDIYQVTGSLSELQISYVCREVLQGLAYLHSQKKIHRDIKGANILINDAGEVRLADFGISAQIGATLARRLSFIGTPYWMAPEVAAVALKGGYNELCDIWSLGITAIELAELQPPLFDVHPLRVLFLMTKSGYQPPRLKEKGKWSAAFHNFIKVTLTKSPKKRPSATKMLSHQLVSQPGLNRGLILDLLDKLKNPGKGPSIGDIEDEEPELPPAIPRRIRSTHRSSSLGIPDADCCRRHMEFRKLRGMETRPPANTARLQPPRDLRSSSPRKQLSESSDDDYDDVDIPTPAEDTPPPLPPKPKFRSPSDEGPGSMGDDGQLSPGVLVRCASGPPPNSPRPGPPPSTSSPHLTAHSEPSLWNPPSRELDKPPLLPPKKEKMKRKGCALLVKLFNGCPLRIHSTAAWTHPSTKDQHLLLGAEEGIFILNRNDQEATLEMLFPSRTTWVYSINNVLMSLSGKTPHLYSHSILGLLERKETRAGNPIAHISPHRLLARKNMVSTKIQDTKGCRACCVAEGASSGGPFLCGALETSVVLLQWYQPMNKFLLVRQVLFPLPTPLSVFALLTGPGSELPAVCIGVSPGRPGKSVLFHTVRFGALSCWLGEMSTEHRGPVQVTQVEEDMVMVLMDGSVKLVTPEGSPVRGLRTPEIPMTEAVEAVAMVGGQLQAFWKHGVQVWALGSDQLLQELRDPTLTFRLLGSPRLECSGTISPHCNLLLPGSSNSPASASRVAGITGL

Row | Compound | IC50 (HPK1 [1]) [nM] | IC50 (HPK1 [2]) [nM]
1 | CC(=O)N1CCc2cc(-c3cnc4[nH]cc(C)c4c3)cc(C3CCCN3)c2C1 (stereo not shown) [Compound Z98, 1-(6-(3-methyl-1H-pyrrolo[2,3-b]pyridin-5-yl)-8(pyrrolidin-2-yl)-3,4-dihydroisoquinolin-2(1H)-yl)ethanone] | 0.9 | 237
2 | Cc1[nH]c2ncc(-c3cc4c(c([C@@H]5CCCN5)c3)CN(C(=O)[C@](C)(O)C(F)(F)F)CC4)cc2c1C [Compound Z414, (S)-1-(6-(2,3-dimethyl-1H-pyrrolo[2,3-b]pyridin-5-yl)-8-((S)-pyrrolidin-2-yl)-3,4-dihydroisoquinolin-2(1H)-yl)-3,3,3-trifluoro-2-hydroxy-2-methylpropan-1-one] | 20.6 | 2610
3 | C[C@H](C#N)c1c[nH]c2ncc(-c3cc4c(c([C@@H]5CCCN5)c3)COCC4)cc12 (single isomer, unassigned) [Compound Z104-1] | 0.62 | 126
4 | Cc1c[nH]c2ncc(-c3cc4c(c([C@@H]5CCCN5)c3)CCN(S(C)(=O)=O)C4)cc12 [Compound Z88-1, (S)-7-(3-methyl-1H-pyrrolo[2,3-b]pyridin-5-yl)-2-(methylsulfonyl)-5-(pyrrolidin-2-yl)-1,2,3,4-tetrahydroisoquinoline] | 0.38 | 91.3
5 | Cc1c[nH]c2ncc(-c3cc4c(c([C@@H]5CCCN5)c3)CN(C(=O)c3ccn(C)n3)CC4)cc12 [Compound Z223, (S)-(1-methyl-1H-pyrazol-3-yl)(6-(3-methyl-1H-pyrrolo[2,3-b]pyridin-5-yl)-8-(pyrrolidin-2-yl)-3,4-dihydroisoquinolin-2(1H)-yl)methanone] | 1.6 | 301
6 | N#CCc1c[nH]c2ncc(-c3cc4c(c([C@@H]5CCCN5)c3)COCC4)cc12 (single isomer, unassigned) [Compound Z101-2] | 0.99 | 111
7 | Nc1ncc(-c2cc3c(c([C@H]4CCCN4)c2)COCC3)cc1-c1cn[nH]c1 (single isomer, unassigned) [Compound Z93-1] | 163 | –
8 | CC(C)c1c[nH]c2ncc(-c3cc([C@H]4CCCN4)c4cnccc4c3)cc12 (single isomer, unassigned) [Compound Z95-1] | 18.4 | –
9 | CNC(c1ccccc1)c1cc(-c2cnc3[nH]cc(C)c3c2)cc2c1COCC2 (single isomer, unassigned) [Compound Z234-2] | > 1000 | –
10 | N#CCc1c[nH]c2ncc(-c3cc4c(c([C@H]5CCCN5)c3)COCC4)cc12 (single isomer, unassigned) [Compound Z101-1] | 42.7 | –
11 | Cc1c[nH]c2ncc(-c3cc4c(c([C@H]5CCCN5)c3)COCC4)cc12 (single isomer, unassigned) [Compound Z97-1] | 120 | –
12 | CC(=O)N1CCc2cc(-c3cnc4[nH]cc(C)c4c3)cc([C@H]3CCCN3)c2C1 (single isomer, unassigned) [Compound Z98-1] | 49.4 | –
13 | Cc1c[nH]c2ncc(-c3cc4c(c([C@@H]5COCCN5)c3)CN(C(=O)[C@](C)(O)C(F)(F)F)CC4)cc12 (single isomer, unassigned) [Compound Z309-1] | 0.58 | –
14 | CNC(c1ccccc1)c1cc(-c2cnc3[nH]cc(C)c3c2)cc2c1COCC2 (single isomer, unassigned) [Compound Z234-1] | 154 | –
15 | CC(=O)N1CCc2cc(-c3cnc4[nH]cc(C)c4c3)cc([C@H]3COCCN3)c2C1 (single isomer, unassigned) [Compound Z119-2] | 90 | –
16 | Cc1c[nH]c2ncc(-c3cc4c(c(C5CC6(CC6)CN5)c3)COCC4)cc12 (stereo not shown) [Compound Z240-1, 5-(8-(5-azaspiro[2.4]heptan-6-yl)isochroman-6-yl)-3-methyl-1H-pyrrolo[2,3-b]pyridine] | – | 770
17 | Cc1c[nH]c2ncc(-c3cc4c(c(N5CCC[C@H]5CO)c3)COCC4)cc12 [Compound Z116-2, (S)-(1-(6-(3-methyl-1H-pyrrolo[2,3-b]pyridin-5-yl)isochroman-8-yl)pyrrolidin-2-yl)methanol] | > 1000 | –
18 | Cc1c[nH]c2ncc(-c3cc4c(c([C@@H]5CCCN5)c3)CN(C(=O)N3C5CCC3COC5)CC4)cc12 [Compound Z388, (3-oxa-8-azabicyclo[3.2.1]octan-8-yl)(6-(3-methyl-1H-pyrrolo[2,3-b]pyridin-5-yl)-8-((S)-pyrrolidin-2-yl)-3,4-dihydroisoquinolin-2(1H)-yl)methanone] | – | 43.1
19 | Cc1c[nH]c2ncc(-c3cc4c(c(N5CCC[C@@H]5CO)c3)COCC4)cc12 [Compound Z116-1, (R)-(1-(6-(3-methyl-1H-pyrrolo[2,3-b]pyridin-5-yl)isochroman-8-yl)pyrrolidin-2-yl)methanol] | 843 | –

The remaining lines, values ahead:

Row | IC50 (HPK1 [1]) [nM] | IC50 (HPK1 [2]) [nM] | Compound
20 | 1.09 | 492 | Cc1nn(C2CC2)cc1C(=O)N1CCc2cc(-c3cnc4[nH]cc(C)c4c3)cc([C@@H]3CCCN3)c2C1 [Compound Z341]
21 | 0.91 | 323 | Cc1c[nH]c2ncc(-c3cc4c(c([C@@H]5CCCN5)c3)CCN(C(=O)[C@@](C)(O)C(F)(F)F)C4)cc12 [Compound Z285, (R)-3,3,3-trifluoro-2-hydroxy-2-methyl-1-(7-(3-methyl-1H-pyrrolo[2,3-b]pyridin-5-yl)-5-((S)-pyrrolidin-2-yl)-3,4-dihydroisoquinolin-2(1H)-yl)propan-1-one]
22 | 2.65 | 545 | Cc1c[nH]c2ncc(-c3cc4c(c(CN(C)C)c3)COCC4)cc12 [Compound Z103, N,N-dimethyl-1-(6-(3-methyl-1H-pyrrolo[2,3-b]pyridin-5-yl)isochroman-8-yl)methanamine]
23 | 0.28 | 111 | Cc1c[nH]c2ncc(-c3cc4c(c([C@@H]5CCCN5)c3)CN(C(=O)c3cnn(C5CC5)c3)CC4)cc12 [Compound Z319, (S)-(1-cyclopropyl-1H-pyrazol-4-yl)(6-(3-methyl-1H-pyrrolo[2,3-b]pyridin-5-yl)-8-(pyrrolidin-2-yl)-3,4-dihydroisoquinolin-2(1H)-yl)methanone]
24 | 1.04 | 438 | C=C1COCc2c(cc(-c3cnc4[nH]cc(C)c4c3)cc2[C@@H]2CCCN2)C1 [Compound Z230, (S)-3-methyl-5-(4-methylene-9-(pyrrolidin-2-yl)-1,3,4,5-tetrahydrobenzo[c]oxepin-7-yl)-1H-pyrrolo[2,3-b]pyridine]
25 | 1.35 | 343 | Cc1c[nH]c2ncc(-c3cc4c(c([C@@H]5CCCN5)c3)CN(C(=O)c3ccccc3)CC4)cc12 [Compound Z123]
26 | 26.9 | 2840 | CCN(CC)Cc1cc(-c2cnc3[nH]cc(C)c3c2)cc2c1COCC2 [Compound Z110, N-ethyl-N-((6-(3-methyl-1H-pyrrolo[2,3-b]pyridin-5-yl)isochroman-8-yl)methyl)ethanamine]
27 | 0.44 | 162 | Cc1cc(C(=O)N2CCc3c(cc(-c4cnc5[nH]cc(C)c5c4)cc3[C@@H]3CCCN3)C2)cc(C)n1 [Compound Z279, (S)-(2,6-dimethylpyridin-4-yl)(7-(3-methyl-1H-pyrrolo[2,3-b]pyridin-5-yl)-5-(pyrrolidin-2-yl)-3,4-dihydroisoquinolin-2(1H)-yl)methanone]
28 | – | 319 | Cc1cn(C2CC2)nc1C(=O)N1CCc2cc(-c3cnc4[nH]cc(C)c4c3)cc([C@@H]3CCCN3)c2C1 [Compound Z347, (S)-(1-cyclopropyl-4-methyl-1H-pyrazol-3-yl)-[6-(3-methyl-1H-pyrrolo[2,3-b]pyridin-5-yl)-8-[pyrrolidin-2-yl]-3,4-dihydro-1H-isoquinolin-2-yl]methanone]
29 | 168 | – | Cc1c[nH]c2ncc(-c3cc4c(c([C@@H]5CCCN5)c3)CN(c3ccccn3)CC4)cc12 [Compound Z128, (S)-6-(3-methyl-1H-pyrrolo[2,3-b]pyridin-5-yl)-2-(pyridin-2-yl)-8-(pyrrolidin-2-yl)-1,2,3,4-tetrahydroisoquinoline]
30 | 2.28 | – | Cc1c[nH]c2ncc(-c3cc4c(c([C@@H]5CC6(CC6)CN5)c3)COCC4)cc12 [Compound Z240]
31 | – | 2030 | Cc1c[nH]c2ncc(-c3cc4c(c([C@@H]5CCCN5)c3)CN(C(=O)c3cnn(CCO)c3)CC4)cc12 [Compound Z281, (S)-(1-(2-hydroxyethyl)-1H-pyrazol-4-yl)(6-(3-methyl-1H-pyrrolo[2,3-b]pyridin-5-yl)-8-(pyrrolidin-2-yl)-3,4-dihydroisoquinolin-2(1H)-yl)methanone]
32 | – | 3.3 | Cc1c[nH]c2ncc(-c3cc4c(c([C@@H]5CCCN5)c3)CN(C(=O)Nc3cn[nH]c3)C4)cc12 [Compound Z385]
33 | 257 | – | Cc1c[nH]c2ncc(-c3cc4c(c(CN5CCOCC5)c3)COCC4)cc12 [Compound Z115, 4-((6-(3-methyl-1H-pyrrolo[2,3-b]pyridin-5-yl)isochroman-8-yl)methyl)morpholine]
34 | – | 271 | Cc1cn(C2CC2)nc1C(=O)N1CCc2cc(-c3cnc4[nH]cc(C)c4c3)cc([C@@H]3CCCN3)c2C1 [Compound Z342, (S)-(1-cyclopropyl-4-methyl-1H-pyrazol-3-yl)-[6-(3-methyl-1H-pyrrolo[2,3-b]pyridin-5-yl)-8-[pyrrolidin-2-yl]-3,4-dihydro-2(1H)-isoquinolin-yl]methanone]
35 | – | 239 | Nc1ncc(-c2cc3c(c([C@@H]4CCCN4)c2)COCC3)cc1-c1nncs1 [Compound Z239, 5-[8-[(S)-pyrrolidin-2-yl]isochroman-6-yl]-3-(1,3,4-thiadiazol-2-yl)pyridin-2-amine]
